The values that follow come from ChEMBL document CHEMBL5465560, “Selectivity Literature for EUbOPEN Chemogenomic Library” (2024).

The target in test [1] is T1, SNF-related serine/threonine-protein kinase (Homo sapiens) (UniProt Q9NRH2).
T1 sequence (whole entry): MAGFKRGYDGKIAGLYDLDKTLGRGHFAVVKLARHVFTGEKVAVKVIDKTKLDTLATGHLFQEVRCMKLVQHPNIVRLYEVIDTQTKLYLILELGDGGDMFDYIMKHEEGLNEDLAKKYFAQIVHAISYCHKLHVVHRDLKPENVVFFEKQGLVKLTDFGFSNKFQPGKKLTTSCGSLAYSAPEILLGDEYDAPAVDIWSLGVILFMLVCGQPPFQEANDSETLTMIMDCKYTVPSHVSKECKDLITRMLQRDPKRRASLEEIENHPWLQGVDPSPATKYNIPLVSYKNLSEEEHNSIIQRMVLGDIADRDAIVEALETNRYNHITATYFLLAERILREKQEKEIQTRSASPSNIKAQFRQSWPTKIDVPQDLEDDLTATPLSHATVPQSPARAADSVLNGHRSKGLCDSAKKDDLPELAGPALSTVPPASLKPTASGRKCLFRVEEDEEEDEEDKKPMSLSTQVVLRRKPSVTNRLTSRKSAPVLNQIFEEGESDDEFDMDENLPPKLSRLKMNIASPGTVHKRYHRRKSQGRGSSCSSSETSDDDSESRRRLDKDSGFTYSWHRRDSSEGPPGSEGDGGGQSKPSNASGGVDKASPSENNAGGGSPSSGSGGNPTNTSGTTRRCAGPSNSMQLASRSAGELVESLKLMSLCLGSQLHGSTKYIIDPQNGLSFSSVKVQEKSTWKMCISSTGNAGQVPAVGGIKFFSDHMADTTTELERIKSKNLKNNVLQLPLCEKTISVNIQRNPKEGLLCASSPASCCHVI
The experiment in a line: Selectivity interaction (Kinase panel (KiNativ target engagement assay in Jurkat cells)) EUB0001635a SNRK. Type of test: cell-based. Conditions: at 1 µM.

For test [2], the target named is T2, Uncharacterized serine/threonine-protein kinase SBK3 (Homo sapiens) (UniProt P0C264).
T2 sequence (whole entry): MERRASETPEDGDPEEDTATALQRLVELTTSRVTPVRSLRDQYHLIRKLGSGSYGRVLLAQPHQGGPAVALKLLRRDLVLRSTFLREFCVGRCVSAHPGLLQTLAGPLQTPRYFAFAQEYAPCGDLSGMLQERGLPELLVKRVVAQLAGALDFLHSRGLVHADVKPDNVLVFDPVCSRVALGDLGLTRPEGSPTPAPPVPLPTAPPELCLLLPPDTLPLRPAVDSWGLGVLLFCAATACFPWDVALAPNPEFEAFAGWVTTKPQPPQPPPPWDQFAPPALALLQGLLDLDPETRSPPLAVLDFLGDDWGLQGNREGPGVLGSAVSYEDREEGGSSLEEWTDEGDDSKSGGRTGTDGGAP
The experiment in a line: Selectivity interaction (KinomeScan (DiscoverX)) EUB0001079a SBK3. The note with it: at 1 µM.

Test [3] concerns the target T3, Mitogen-activated protein kinase kinase kinase 5 (Homo sapiens) (UniProt Q99683).
T3 sequence (whole entry): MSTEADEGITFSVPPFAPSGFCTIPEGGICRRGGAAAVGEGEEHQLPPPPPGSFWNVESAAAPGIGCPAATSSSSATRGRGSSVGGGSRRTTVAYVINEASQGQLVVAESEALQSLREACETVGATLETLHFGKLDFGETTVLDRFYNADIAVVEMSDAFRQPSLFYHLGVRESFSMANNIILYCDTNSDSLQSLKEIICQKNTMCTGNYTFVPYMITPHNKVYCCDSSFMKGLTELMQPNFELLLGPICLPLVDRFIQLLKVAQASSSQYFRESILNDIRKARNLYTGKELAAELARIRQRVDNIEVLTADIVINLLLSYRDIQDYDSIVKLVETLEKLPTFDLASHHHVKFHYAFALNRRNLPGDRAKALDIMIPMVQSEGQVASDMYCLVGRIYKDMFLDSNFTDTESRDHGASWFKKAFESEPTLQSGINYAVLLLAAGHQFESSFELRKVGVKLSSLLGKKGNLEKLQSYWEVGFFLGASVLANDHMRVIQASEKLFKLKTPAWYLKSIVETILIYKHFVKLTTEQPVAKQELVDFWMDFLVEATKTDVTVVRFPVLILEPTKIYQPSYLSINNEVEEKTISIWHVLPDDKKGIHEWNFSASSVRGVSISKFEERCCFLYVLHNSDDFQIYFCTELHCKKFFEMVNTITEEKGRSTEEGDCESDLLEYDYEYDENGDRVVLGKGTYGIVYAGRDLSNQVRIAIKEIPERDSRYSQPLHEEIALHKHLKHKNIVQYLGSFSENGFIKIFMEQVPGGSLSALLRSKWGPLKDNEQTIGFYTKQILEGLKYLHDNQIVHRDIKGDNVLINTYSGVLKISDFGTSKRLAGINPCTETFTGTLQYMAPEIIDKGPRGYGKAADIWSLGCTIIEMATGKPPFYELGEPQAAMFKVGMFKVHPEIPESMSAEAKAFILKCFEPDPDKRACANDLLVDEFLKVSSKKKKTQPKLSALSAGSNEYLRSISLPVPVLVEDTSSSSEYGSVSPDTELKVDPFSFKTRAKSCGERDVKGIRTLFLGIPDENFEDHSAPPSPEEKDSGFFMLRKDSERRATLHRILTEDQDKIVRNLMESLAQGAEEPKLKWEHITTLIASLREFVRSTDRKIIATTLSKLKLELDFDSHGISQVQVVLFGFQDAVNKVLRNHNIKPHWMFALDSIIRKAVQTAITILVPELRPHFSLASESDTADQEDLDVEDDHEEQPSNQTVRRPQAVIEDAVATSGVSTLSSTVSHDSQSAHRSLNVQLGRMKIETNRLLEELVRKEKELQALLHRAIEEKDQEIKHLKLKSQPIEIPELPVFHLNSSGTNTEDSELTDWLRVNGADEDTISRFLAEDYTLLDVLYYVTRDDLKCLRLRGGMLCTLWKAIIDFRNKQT
The experiment in a line: Selectivity interaction (ActivX KiNativ screen (kinase selectivity in THP-1 cell lysates)) EUB0000639a MAP3K5. Type of test: subcellular. Conditions: lysate, at 0.01 µM.

Test [4] deals with CDK6/cyclin D1 (Homo sapiens) (UniProt P24385+Q00534). Put plainly: (§1) Selectivity interaction (ProQinase) EUB0000171b CDK6. Type of test: protein-complex assay.
Test [5] addresses CDK6/cyclin D3 (Homo sapiens) (UniProt P30281+Q00534). The test is described as §1. Type of test: protein-complex assay.
For test [6], the target named is Cyclin-dependent kinase-like 1 (Homo sapiens) (UniProt Q00532). The experiment in a line: Selectivity interaction (KinomeScan (DiscoverX)) EUB0000045b CDKL1.
Sequence of Cyclin-dependent kinase-like 1 (Homo sapiens) (Q00532 whole entry): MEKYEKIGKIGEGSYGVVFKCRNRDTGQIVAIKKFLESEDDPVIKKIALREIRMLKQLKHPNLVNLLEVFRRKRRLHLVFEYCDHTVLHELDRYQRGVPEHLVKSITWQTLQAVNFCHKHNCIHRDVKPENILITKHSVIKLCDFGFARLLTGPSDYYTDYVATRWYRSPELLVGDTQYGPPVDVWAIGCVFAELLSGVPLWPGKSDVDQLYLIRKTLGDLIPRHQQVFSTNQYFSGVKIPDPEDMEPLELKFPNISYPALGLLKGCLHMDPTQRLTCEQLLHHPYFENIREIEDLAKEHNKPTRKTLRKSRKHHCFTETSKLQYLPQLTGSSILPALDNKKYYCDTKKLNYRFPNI

Regarding `C=CC(=O)Nc1ccc(C(=O)Nc2[nH]nc3c2CN(C(=O)N[C@H](CN(C)C)c2ccccc2)C3(C)C)cc1`, the % of engagement came to 6.9% in test [1] (Selectivity number of off-targets 0.0, Selectivity number of targets 233.0, Source Knowledge https://www.sciencedirect.com/science/article/pii/S2451945619300674?via%3Dihub) and 30.4% in test [1].

`Nc1cnc(N2CCc3cc(S(=O)(=O)Nc4c(F)cc(Cl)cc4F)cc(N4CCCC4=O)c32)nc1` [TP-020n] came in with a % of control in test [2] of 100%.

Regarding `CC[C@@H]1[C@H](F)C(=O)N[C@@H]1COc1nccc2cc(C(N)=O)c(OC)cc12` [ZIMLOVISERTIB], in test [3], the % of inhibition was -5.8%.

As for `C=CC(=O)Nc1cccc(C(=O)Nc2ccc(Nc3cc(-c4[nH]c(SC)nc4C)ccn3)cc2)c1`, the % of control in test [4] (at 1 µM) was 91%; in test [4] (at 5 µM), 87%; in test [5] (at 1 µM), 93%; in test [5] (at 5 µM), 86%.

On to `C=CC(=O)Nc1cc(-n2c(=O)ccc3cnc4ccc(-c5ccc(NS(C)(=O)=O)cc5)cc4c32)ccc1C`, for which the figures for the % of control in test [6] (at 1 µM) and in test [6] (at 10 µM) were 100% and 58%, respectively.
